Laboratory results reported in the supplement of paper PMC10307832.

Tests used:
Assay in all cases: relative viability (nuclei count vs DMSO), 5 days (fraction); higher = more cells survive
[1] = compound: C1=CC=C(C(=C1)C2=CC=C(C=C2)C3=CSC4=C3C(=C(C(=O)N4)C#N)O)O + CC1(C)CCC(c2ccc(Cl)cc2)=C(CN2CCN(c3ccc(C(=O)NS(=O)(=O)c4ccc(N[C@H](CCN5CCOCC5)CSc5ccccc5)c(S(=O)(=O)C(F)(F)F)c4)cc3)CC2)C1 [Navitoclax] (partner 0.5 µM)
Outline: (§1)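 After 5 days of treatment, lung cancer cells in 1536-well plates were fixed and stained in a single step (final 0.05% Triton X-100, 1% formaldehyde, 1 ug/ml Hoechst) and their nuclei counted on 4× images. Treatment had been applied by pin tool the day after seeding as one drug alone or as a fixed anchor-drug dose with five library-drug doses (not always all listed) in √10 steps. Relative viability is the nuclei count of treated wells divided by that of vehicle wells, and values are medians of duplicate plates.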

TGX 221 + OSI-027 = compound: CC1=CN2C(=O)C=C(N=C2C(=C1)C(C)NC3=CC=CC=C3)N4CCOCC4 [TGX 221] + COc1cccc2cc(-c3nc([C@H]4CC[C@H](C(=O)O)CC4)n4ncnc(N)c34)[nH]c12 [OSI-027] (partner 0.5 µM)
Outline: as §1

[2] = compound: O=C(CCCCCCNC(=O)c1cnc(N(c2ccccc2)c2ccccc2)nc1)NO [Ricolinostat] + C[C@]1(O)C[C@@H](c2nc(-c3ccc4ccc(-c5ccccc5)nc4c3)c3c(N)nccn32)C1 [Linsitinib] (partner 1 µM)
Outline: as §1

[3] = compound: O=C(CCCCCCNC(=O)c1cnc(N(c2ccccc2)c2ccccc2)nc1)NO [Ricolinostat] + CC(=O)Nc1cccc(-n2c(=O)n(C3CC3)c(=O)c3c(Nc4ccc(I)cc4F)n(C)c(=O)c(C)c32)c1 [Trametinib] (partner 0.02 µM)
Outline: as §1

Cell Line	relative viability ([1]; first compound 0.08 µM)	relative viability ([1]; first compound 0.253 µM)	relative viability ([1]; first compound 0.8 µM)	relative viability ([1]; first compound 2.53 µM)	relative viability ([1]; first compound 8 µM)	relative viability (TGX 221 + OSI-027; first compound 0.08 µM)	relative viability (TGX 221 + OSI-027; first compound 0.253 µM)	relative viability (TGX 221 + OSI-027; first compound 0.8 µM)	relative viability (TGX 221 + OSI-027; first compound 2.53 µM)	relative viability (TGX 221 + OSI-027; first compound 8 µM)	relative viability ([2]; first compound 0.08 µM)	relative viability ([2]; first compound 0.253 µM)	relative viability ([2]; first compound 0.8 µM)	relative viability ([2]; first compound 2.53 µM)	relative viability ([3]; first compound 0.08 µM)	relative viability ([3]; first compound 0.253 µM)	relative viability ([3]; first compound 0.8 µM)	relative viability ([3]; first compound 2.53 µM)
201T	1.25	1.18	1.19	1.18	1.26	0.547	0.726	1.08	0.708	0.696	0.915	0.964	0.986	0.904	0.713	0.709	0.689	0.772
A549	1.37	1.44	1.28	1.28	1.04							0.533	0.538	0.562				
A-427	0.999	0.951	1.01	0.957	1.02	0.53	0.491	0.506	0.473	0.448	0.958	1.07	1.01	0.875	0.652	0.776	0.723	0.654
ABC-1						0.518	0.505	0.593	0.432	0.406	0.616	0.772	0.944	0.669				
BEN	0.0583	0.07	0.0922	0.0562	0.063	0.293	0.271	0.276	0.287	0.296	0.795	0.751	0.953	0.592	0.816	0.905	0.828	0.796
CAL-12T		1.23	1.22	1.45	1.06	0.604	0.471	0.821	0.486	0.567	0.55	0.69	0.835	0.859	0.266	0.32	0.456	0.395
COR-L23	1.09	0.983	1.21	1.06	0.762	0.713	0.777	0.815	0.835	0.715	0.726	0.854	0.897	0.543	0.485	0.582	0.625	0.49
COR-L 105	0.951	0.776	0.829	0.704	0.784	0.793	0.612	0.759	1.03	0.627	0.761	0.92	1.1	1.11	0.376	0.471	0.547	0.543
Calu-6	0.831	0.981	1.03	0.843	0.785						0.817	0.89	0.891	0.766				
ChaGo-K-1	0.642	0.833	0.909	1	1.37	0.529	0.547	0.581	0.474	0.64					0.894	0.865	0.848	0.802
EBC-1	0.353	0.371	0.425	0.37	0.348						0.737	0.713	0.911	0.328				
EKVX	0.897	1.13	1.03	0.922	0.903	0.697	0.708	0.698	0.687	0.672		1.01	0.921	1.15	0.283	0.282	0.426	0.368
EMC-BAC-2	0.963	1.28	1.2	1.46	0.774	0.376	0.443	0.348	0.359	0.366	0.731	0.78	0.832	0.885	0.809	0.895	0.819	0.74
EPLC-272H		1.11	1.17	1.12	0.744	0.273	0.28	0.244	0.293	0.316		0.894	1.21	0.772		0.284	0.313	0.26
H3255	0.534	0.431	0.53	0.602	0.444	0.535	0.593	0.506	0.539	0.571	0.78	0.879	0.878	0.854	0.571	0.644	0.677	0.76
HARA		1.41	1.19	1.15	1.02	0.447	0.493	0.526	0.501	0.471	0.813	0.902	0.886	0.81	0.704	0.804	0.529	0.644
HCC-15	0.663	0.809	0.763	0.858	0.644	0.672	0.713	0.754	0.592	0.681	0.847	0.866	0.938	0.834	0.352	0.397	0.379	0.333
HCC-44	0.909	1.09	1	0.938	0.65		0.417	0.51	0.543	0.41	0.575	0.682	0.589	0.545	1.11	1.02	1.02	1.04
HCC-78	0.826	1.02	0.754	0.943	0.708	0.295	0.385	0.33	0.306	0.326		0.551	0.417	0.271		0.782	0.768	0.601
HCC-366	0.959	1.18	1.05	1.11	0.501	0.865	0.832	0.922	0.567	0.755	0.454	0.67	0.478	0.454	0.372	0.32	0.314	0.342
